Experiments:
Format in all cases: in vivo
[1] = tested on: sweetpotato whitefly (Bemisia tabaci (Gennadius)); test: Test G: control of sweetpotato whitefly through contact and/or systemic means; settings: in Gossypium hirsutum, 312 h
Method: (§1) Formulation and Spray Methodology for Tests A-H
(§2) Test compounds were formulated using a solution containing 10% acetone, 90% water and 300 ppm Activator 90® non-ionic surfactant (Loveland Products, Loveland, Colo., USA). The formulated compounds were applied in 1 mL of liquid through an atomizer nozzle positioned 1.27 cm (0.5 inches) above the top of each test unit. Test compounds were sprayed at the rates indicated, and each test was replicated three times.
For evaluating control of the sweetpotato whitefly (Bemisia tabaci (Gennadius)) through contact and/or systemic means, the test unit consisted of a small open container with a 12-14-day-old cotton plant inside. Prior to the spray application, both cotyledons were removed from the plant, leaving one true leaf for the assay. Adult whiteflies were allowed to lay eggs on the plant and then were removed from the test unit. Cotton plants infested with at least 15 eggs were submitted to the test for spraying.
Test compounds were formulated and sprayed at 250, 50, and 10 ppm. After spraying, the test units were allowed to dry for 1 hour. The cylinders were then removed, and the units were taken to a growth chamber and held for 13 days at 28° C. and 50-70% relative humidity. Each test unit was then visually assessed for insect mortality.

[2] = tested on: cotton melon aphid (Aphis gossypii (Glover)); test: Test F: control of cotton melon aphid through contact and/or systemic means; settings: 144 h
Method: as §1, §2
For evaluating control of cotton melon aphid (Aphis gossypii (Glover)) through contact and/or systemic means, the test unit consisted of a small open container with a 5-day-old okra plant inside. This was pre-infested with 30-40 insects on a piece of leaf according to the cut-leaf method, and the soil of the test unit was covered with a layer of sand.
Test compounds were formulated and sprayed at 250, 50 and 10 ppm. After spraying, the test units were maintained in a growth chamber for 6 days at 19° C. and 70% relative humidity. Each test unit was then visually assessed for insect mortality.

[3] = tested on: potato leafhopper (Empoasca fabae (Harris)); test: Test D: control of potato leafhopper through contact and/or systemic means; settings: 144 h
Method: as §1, §2
For evaluating control of potato leafhopper (Empoasca fabae (Harris)) through contact and/or systemic means, the test unit consisted of a small open container with a 5-6-day-old Soleil bean plant (primary leaves emerged) inside. White sand was added to the top of the soil, and one of the primary leaves was excised prior to application of the test compound.
Test compounds were formulated and sprayed at 250, 50, 10 and 2 ppm. After spraying of the formulated test compound, the test units were allowed to dry for 1 hour before they were post-infested with 5 potato leafhoppers (18-to-21-day-old adults). A black, screened cap was placed on the top of the test unit, and the test units were held for 6 days in a growth chamber at 20° C. and 70% relative humidity. Each test unit was then visually assessed for insect mortality.

[4] = tested on: green peach aphid (Myzus persicae (Sulzer)); test: Test E: control of green peach aphid through contact and/or systemic means; settings: in Raphanus sativus, 144 h
Method: as §1, §2
For evaluating control of green peach aphid (Myzus persicae (Sulzer)) through contact and/or systemic means, the test unit consisted of a small open container with a 12-15-day-old radish plant inside. This was pre-infested by placing on a leaf of the test plant 30-40 aphids on a piece of leaf excised from a culture plant (cut-leaf method). The aphids moved onto the test plant as the leaf piece desiccated. After pre-infestation, the soil of the test unit was covered with a layer of sand.
Test compounds were formulated and sprayed at 250, 50 and 10 ppm. After spraying of the formulated test compound, each test unit was allowed to dry for 1 hour and then a black, screened cap was placed on top. The test units were held for 6 days in a growth chamber at 19-21° C. and 50-70% relative humidity. Each test unit was then visually assessed for insect mortality.

CON=CNC(=O)c1ccc(C2=NOC(c3cc(Cl)c(F)c(Cl)c3)(C(F)(F)F)C2)c2ccccc12 (stereo not drawn) [Compound 33, 4-[5-(3,5-dichloro-4-fluorophenyl)-4,5-dihydro-5-(trifluoromethyl)-3-isoxazolyl]-N-[(methoxyimino)methyl]-1-naphthalenecarboxamide]
mortality at 2 ppm [1]: ≥ 70% | mortality at 10 ppm [1]: ≥ 70% | mortality at 50 ppm [1]: ≥ 70% | mortality at 10 ppm [2]: ≥ 80% | mortality at 50 ppm [2]: ≥ 80% | mortality at 2 ppm [3]: ≥ 80% | mortality at 10 ppm [3]: ≥ 80% | mortality at 50 ppm [3]: ≥ 80% | mortality at 50 ppm [4]: ≥ 80%

C[C@@H](NC(=O)c1ccc(C2=NOC(c3cc(Cl)c(F)c(Cl)c3)(C(F)(F)F)C2)c2ccccc12)C(N)=O (stereo partly drawn) [Compound 1, N-[(1R)-2-amino-1-methyl-2-oxoethyl]-4-[5-(3,5-dichloro-4-fluorophenyl)-4,5-dihydro-5-(trifluoromethyl)-3-isoxazolyl]-1-naphthalenecarboxamide]
mortality at 250 ppm [2]: ≥ 80% | mortality at 50 ppm [3]: ≥ 80% | mortality at 250 ppm [3]: ≥ 80%

O=C(NCc1ccccn1)c1ccc(C2=NOC(c3cc(Cl)c(F)c(Cl)c3)(C(F)(F)F)C2)c2ccccc12 (stereo not drawn) [Compound 15, 4-[5-(3,5-dichloro-4-fluorophenyl)-4,5-dihydro-5-(trifluoromethyl)-3-isoxazolyl]-N-(2-pyridinylmethyl)-1-naphthalenecarboxamide]
mortality at 50 ppm [1]: ≥ 70% | mortality at 2 ppm [3]: ≥ 80% | mortality at 10 ppm [3]: ≥ 80% | mortality at 50 ppm [3]: ≥ 80%

COC(=O)CNC(=O)c1ccc(C2=NOC(c3cc(Cl)c(F)c(Cl)c3)(C(F)(F)F)C2)c2ccccc12 (stereo not drawn) [Compound 35, N-[[4-[5-(3,5-dichloro-4-fluorophenyl)-4,5-dihydro-5-(trifluoromethyl)-3-isoxazolyl]-1-naphthalenyl]carbonyl]glycine methyl ester]
mortality at 50 ppm [2]: ≥ 80% | mortality at 250 ppm [2]: ≥ 80% | mortality at 250 ppm [3]: ≥ 80% | mortality at 50 ppm [4]: ≥ 80% | mortality at 250 ppm [4]: ≥ 80%
